Test results as given in PubChem BioAssay (NCI).
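Test compounds were applied to cells in 96-well plates for 48 hours at 5 doses. The concentration for full growth arrest is given as TGI.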

Legend:
Assay in all cases: inhibition of tumour cell growth, NCI panel, 48 h
[1] = system: 786-0 renal
[2] = system: A498 renal
[3] = system: A549 NSCLC
[4] = system: ACHN renal
[5] = system: BT-549 breast
[6] = system: CAKI-1 renal
[7] = system: CCRF-CEM leukemia
[8] = system: COLO 205 colon
[9] = system: DU-145 prostate
[10] = system: EKVX NSCLC
[11] = system: HCC-2998 colon
[12] = system: HCT-116 colon
[13] = system: HCT-15 colon
[14] = system: HOP-62 NSCLC
[15] = system: HOP-92 NSCLC
[16] = system: HS 578T breast
[17] = system: HT29 colon
[18] = system: IGROV1 ovarian
[19] = system: K-562 leukemia
[20] = system: KM12 colon
[21] = system: M14 melanoma
[22] = system: MALME-3M melanoma
[23] = system: MCF7 breast
[24] = system: MDA-MB-231 breast
[25] = system: MDA-MB-435
[26] = system: MDA-N
[27] = system: MOLT-4 leukemia
[28] = system: NCI-H226 lung
[29] = system: NCI-H23 lung
[30] = system: NCI-H460 lung
[31] = system: NCI-H522 lung
[32] = system: NCI/ADR-RES ovarian
[33] = system: OVCAR-3 ovarian
[34] = system: OVCAR-4 ovarian
[35] = system: OVCAR-5 ovarian
[36] = system: OVCAR-8 ovarian
[37] = system: PC-3 prostate
[38] = system: RPMI-8226 leukemia
[39] = system: RXF 393 renal
[40] = system: SF-268 CNS
[41] = system: SF-295 CNS
[42] = system: SF-539 CNS
[43] = system: SK-MEL-2 melanoma
[44] = system: SK-MEL-28 melanoma
[45] = system: SK-MEL-5 melanoma
[46] = system: SK-OV-3 ovarian
[47] = system: SN12C renal
[48] = system: SNB-19 CNS
[49] = system: SNB-75 CNS
[50] = system: SW-620 colon
[51] = system: T-47D breast
[52] = system: TK-10 renal
[53] = system: U251 CNS
[54] = system: UACC-257 melanoma
[55] = system: UO-31 renal
[56] = system: HL-60(TB) leukemia
[57] = system: LOX IMVI melanoma
[58] = system: UACC-62 melanoma

**Q.** With `CC=C(CBr)CCC(Br)C(C)(C)Cl` (mixture of isomers) as the compound, how does the TGI [1] read?
**A.** The TGI was over 10 µM.

**Q.** What about the TGI [2] of the same compound?
**A.** The TGI was over 10 µM.

**Q.** What about the TGI [3] of the same compound?
**A.** Its TGI is over 10 µM.

**Q.** And the TGI [4]?
**A.** The TGI was over 10 µM.

**Q.** What about the TGI [5] of the same compound?
**A.** Its TGI is over 10 µM.

**Q.** And the TGI [6]?
**A.** The TGI was over 10 µM.

**Q.** What about the TGI [7] of the same compound?
**A.** The TGI was over 10 µM.

**Q.** What about the TGI [8] of the same compound?
**A.** Its TGI is over 10 µM.

**Q.** What about the TGI [9] of the same compound?
**A.** Its TGI is over 10 µM.

**Q.** What about the TGI [10] of the same compound?
**A.** Its TGI is over 10 µM.

**Q.** What about the TGI [11] of the same compound?
**A.** Its TGI is over 10 µM.

**Q.** What about the TGI [12] of the same compound?
**A.** Its TGI is over 10 µM.

**Q.** And the TGI [13]?
**A.** Its TGI is over 10 µM.

**Q.** What about the TGI [14] of the same compound?
**A.** Its TGI is over 10 µM.

**Q.** What about the TGI [15] of the same compound?
**A.** The TGI was over 10 µM.

**Q.** And the TGI [16]?
**A.** Its TGI is over 10 µM.

**Q.** What about the TGI [17] of the same compound?
**A.** Its TGI is over 10 µM.

**Q.** And the TGI [18]?
**A.** The TGI was over 10 µM.

**Q.** What about the TGI [19] of the same compound?
**A.** Its TGI is over 10 µM.

**Q.** And the TGI [20]?
**A.** Its TGI is over 10 µM.

**Q.** And the TGI [21]?
**A.** The TGI was over 10 µM.

**Q.** And the TGI [22]?
**A.** The TGI was over 10 µM.

**Q.** And the TGI [23]?
**A.** Its TGI is over 10 µM.

**Q.** What about the TGI [24] of the same compound?
**A.** The TGI was over 10 µM.

**Q.** What about the TGI [25] of the same compound?
**A.** Its TGI is over 10 µM.

**Q.** What about the TGI [26] of the same compound?
**A.** The TGI was over 10 µM.

**Q.** And the TGI [27]?
**A.** The TGI was over 10 µM.

**Q.** What about the TGI [28] of the same compound?
**A.** Its TGI is over 10 µM.

**Q.** And the TGI [29]?
**A.** The TGI was over 10 µM.

**Q.** And the TGI [30]?
**A.** The TGI was over 10 µM.

**Q.** What about the TGI [31] of the same compound?
**A.** Its TGI is over 10 µM.

**Q.** What about the TGI [32] of the same compound?
**A.** Its TGI is over 10 µM.

**Q.** What about the TGI [33] of the same compound?
**A.** The TGI was over 10 µM.

**Q.** And the TGI [34]?
**A.** Its TGI is over 10 µM.

**Q.** What about the TGI [35] of the same compound?
**A.** The TGI was over 10 µM.

**Q.** And the TGI [36]?
**A.** The TGI was over 10 µM.

**Q.** What about the TGI [37] of the same compound?
**A.** Its TGI is over 10 µM.

**Q.** And the TGI [38]?
**A.** Its TGI is over 10 µM.

**Q.** And the TGI [39]?
**A.** Its TGI is over 10 µM.

**Q.** What about the TGI [40] of the same compound?
**A.** Its TGI is over 10 µM.

**Q.** And the TGI [41]?
**A.** Its TGI is over 10 µM.

**Q.** And the TGI [42]?
**A.** The TGI was over 10 µM.

**Q.** What about the TGI [43] of the same compound?
**A.** The TGI was over 10 µM.

**Q.** What about the TGI [44] of the same compound?
**A.** The TGI was over 10 µM.

**Q.** What about the TGI [45] of the same compound?
**A.** Its TGI is over 10 µM.

**Q.** And the TGI [46]?
**A.** Its TGI is over 10 µM.

**Q.** What about the TGI [47] of the same compound?
**A.** The TGI was over 10 µM.

**Q.** And the TGI [48]?
**A.** Its TGI is over 10 µM.

**Q.** And the TGI [49]?
**A.** Its TGI is over 10 µM.

**Q.** And the TGI [50]?
**A.** Its TGI is over 10 µM.

**Q.** What about the TGI [51] of the same compound?
**A.** The TGI was over 10 µM.

**Q.** And the TGI [52]?
**A.** The TGI was over 10 µM.

**Q.** And the TGI [53]?
**A.** Its TGI is over 10 µM.

**Q.** What about the TGI [54] of the same compound?
**A.** Its TGI is over 10 µM.

**Q.** And the TGI [55]?
**A.** The TGI was over 10 µM.

**Q.** Which TGI [1] does the source give for `CCCCCCSC[C@H](OC(C)=O)[C@@H](OC(C)=O)[C@@H](OC(C)=O)[C@@H](COC(C)=O)OC(C)=O` here?
**A.** The TGI was over 100 µM.

**Q.** And the TGI [2]?
**A.** Its TGI is over 100 µM.

**Q.** And the TGI [3]?
**A.** The TGI was over 100 µM.

**Q.** And the TGI [4]?
**A.** Its TGI is over 100 µM.

**Q.** And the TGI [5]?
**A.** The TGI was over 100 µM.

**Q.** What about the TGI [6] of the same compound?
**A.** Its TGI is over 100 µM.

**Q.** And the TGI [7]?
**A.** Its TGI is over 100 µM.

**Q.** What about the TGI [8] of the same compound?
**A.** Its TGI is over 100 µM.

**Q.** And the TGI [9]?
**A.** Its TGI is over 100 µM.

**Q.** And the TGI [10]?
**A.** The TGI was over 100 µM.

**Q.** And the TGI [11]?
**A.** Its TGI is over 100 µM.

**Q.** And the TGI [12]?
**A.** The TGI was over 100 µM.

**Q.** What about the TGI [13] of the same compound?
**A.** The TGI was over 100 µM.

**Q.** And the TGI [56]?
**A.** Its TGI is over 100 µM.

**Q.** What about the TGI [14] of the same compound?
**A.** The TGI was over 100 µM.

**Q.** And the TGI [15]?
**A.** Its TGI is over 100 µM.

**Q.** And the TGI [16]?
**A.** Its TGI is over 100 µM.

**Q.** What about the TGI [17] of the same compound?
**A.** The TGI was over 100 µM.

**Q.** And the TGI [18]?
**A.** The TGI was over 100 µM.

**Q.** What about the TGI [19] of the same compound?
**A.** Its TGI is over 100 µM.

**Q.** And the TGI [20]?
**A.** Its TGI is over 100 µM.

**Q.** And the TGI [57]?
**A.** Its TGI is over 100 µM.

**Q.** What about the TGI [21] of the same compound?
**A.** Its TGI is over 100 µM.

**Q.** What about the TGI [22] of the same compound?
**A.** The TGI was over 100 µM.

**Q.** What about the TGI [23] of the same compound?
**A.** Its TGI is over 100 µM.

**Q.** And the TGI [24]?
**A.** The TGI was over 100 µM.

**Q.** And the TGI [25]?
**A.** Its TGI is over 100 µM.

**Q.** What about the TGI [26] of the same compound?
**A.** The TGI was over 100 µM.

**Q.** And the TGI [27]?
**A.** The TGI was 90.5 µM.

**Q.** And the TGI [28]?
**A.** The TGI was over 100 µM.

**Q.** And the TGI [29]?
**A.** The TGI was over 100 µM.

**Q.** What about the TGI [30] of the same compound?
**A.** The TGI was over 100 µM.

**Q.** What about the TGI [32] of the same compound?
**A.** Its TGI is over 100 µM.

**Q.** And the TGI [33]?
**A.** The TGI was over 100 µM.

**Q.** And the TGI [34]?
**A.** The TGI was over 100 µM.

**Q.** What about the TGI [35] of the same compound?
**A.** Its TGI is over 100 µM.

**Q.** And the TGI [36]?
**A.** Its TGI is over 100 µM.

**Q.** What about the TGI [37] of the same compound?
**A.** The TGI was 99.6 µM.

**Q.** What about the TGI [38] of the same compound?
**A.** The TGI was 50.1 µM.

**Q.** And the TGI [39]?
**A.** Its TGI is over 100 µM.

**Q.** And the TGI [40]?
**A.** The TGI was over 100 µM.

**Q.** What about the TGI [41] of the same compound?
**A.** Its TGI is over 100 µM.

**Q.** And the TGI [42]?
**A.** Its TGI is over 100 µM.

**Q.** And the TGI [43]?
**A.** Its TGI is over 100 µM.

**Q.** What about the TGI [44] of the same compound?
**A.** The TGI was over 100 µM.

**Q.** And the TGI [45]?
**A.** The TGI was 62.1 µM.

**Q.** What about the TGI [46] of the same compound?
**A.** The TGI was over 100 µM.

**Q.** And the TGI [47]?
**A.** Its TGI is over 100 µM.

**Q.** And the TGI [48]?
**A.** Its TGI is over 100 µM.

**Q.** And the TGI [49]?
**A.** The TGI was over 100 µM.

**Q.** And the TGI [50]?
**A.** Its TGI is over 100 µM.

**Q.** What about the TGI [51] of the same compound?
**A.** The TGI was over 100 µM.

**Q.** And the TGI [52]?
**A.** The TGI was over 100 µM.

**Q.** And the TGI [53]?
**A.** Its TGI is over 100 µM.

**Q.** What about the TGI [54] of the same compound?
**A.** Its TGI is over 100 µM.

**Q.** And the TGI [58]?
**A.** Its TGI is over 100 µM.

**Q.** What about the TGI [55] of the same compound?
**A.** Its TGI is over 100 µM.
